Test results published in US20050113413A1, “Naphthalene-1,5-disulfonic acid salts of a substituted 4-amino-1-(pyridylmethyl)piperidine compound” (priority 2003, published 2005).

What was measured:
Assay type in all cases: physicochemical
[1] = Chemical stability of salt forms (change in purity by HPLC upon storage); settings: 40° C. and 75% relative humidity, 7 days; for % Change in Impurity A / % Change in Impurity B / % Change in Purity of Salt: HPLC Method D; for % Change in Purity of Salt: heat sealed polyethylene bags
Description: The chemical stability of each salt form was evaluated by determining the change in purity of the sample upon storage of the salt form at 40° C.
Prior to storage, each salt form was analyzed by HPLC (Method D) to determine sample purity and in particular, to determine the amount of the following impurities present in the sample: • A. 3-[4-{N-[7-(3-(S)-1-Carbamoyl-1,1-diphenylmethyl)pyrrolidin-1-yl)hept-1-yl]-N-(isopropyl)amino}piperidin-1-ylmethyl]-4-methoxy-1-methylpyridinium Salt (Impurity A); • B. 4-{N-[7-(3-(S)-1-Carbamoyl-1,1-diphenylmethyl)pyrrolidin-1-yl)hept-1-yl]-N-(isopropyl)amino}-1-(4-oxo-1,4-dihydropyrid-3-ylmethyl)piperidine (Impurity B).
Approximately 50-100 mg of the salt form was then placed in two heat sealed low density polyethylene bags. The bags were then placed into a stability chamber that was previously set at 40° C. and 75% relative humidity. After 7 days, the bags were removed and the contents were analyzed by HPLC.

[2] = Physical stability of salt forms (appearance upon storage in open vial); settings: 30° C. and 60% relative humidity, listed as naphthalene-1,5-disulfonic acid salt
Description: The physical stability of certain salt forms was evaluated by determining any changes in appearance of the sample upon storage of the salt form at 30° C. and 60% relative humidity.
To an open vial was added 50-100 mg of each salt form. The open vials were placed in a stability chamber that was previously set at 30° C. and 60% relative humidity. At periodic intervals, the appearance of each salt form was compared to its starting appearance and any differences were recorded.

[3] = Physical stability of encapsulated pharmaceutical formulations (appearance upon storage); settings: both 25° C. and 60% relative humidity, and ambient temperature and relative humidity
Description: The physical stability of encapsulated pharmaceutical formulations containing certain salt forms was evaluated by determining any changes in appearance of the pharmaceutical formulation upon storage.
Capsules containing a 1:1 mixture (wt/wt) of the salt form and microcrystalline cellulose (Avecil) were stored under of the following conditions: • (1) Capsules were placed inside an open container within a stability chamber that was previously set to 25° C. and 60% relative humidity; or • (2) Capsules were placed inside an open container on the bench top alongside a thermometer and hygrometer.
At periodic intervals, the appearance of each formulation was compared to its starting appearance and any differences were recorded.

Compound | % Change in Impurity A [1] | % Change in Impurity B [1] | % Change in Purity of Salt [1] | Chemical stability (summary in words of Table I) [1] | Appearance Day 15 [2] | Appearance of pharmaceutical formulation upon storage (summary in words of Table III) [3]
COc1ccncc1CN1CCC(N(CCCCCCCN2CC[C@@H](C(C(N)=O)(c3ccccc3)c3ccccc3)C2)C(C)C)CC1.CS(=O)(=O)O.CS(=O)(=O)O [Example 9] | <0.1% | <0.1% | 0.9% |  |  | 
COc1ccncc1CN1CCC(N(CCCCCCCN2CC[C@@H](C(C(N)=O)(c3ccccc3)c3ccccc3)C2)C(C)C)CC1.O=S(=O)(O)c1cccc2c(S(=O)(=O)O)cccc12 [Example 7] | <0.1% | <0.1% | 0.4% | excellent chemical stability | remained a free flowing powder | remained a free flowing powder
COc1ccncc1CN1CCC(N(CCCCCCCN2CC[C@@H](C(C(N)=O)(c3ccccc3)c3ccccc3)C2)C(C)C)CC1.Cl.Cl [Example 11G] | 1.16% | 0.79% | 3.6% |  |  | 
COc1ccncc1CN1CCC(N(CCCCCCCN2CC[C@@H](C(C(N)=O)(c3ccccc3)c3ccccc3)C2)C(C)C)CC1.CS(=O)(=O)O.CS(=O)(=O)O.CS(=O)(=O)O [Example 10] | 9.41% | 6.59% | 16.4% |  |  | 
COc1ccncc1CN1CCC(N(CCCCCCCN2CC[C@@H](C(C(N)=O)(c3ccccc3)c3ccccc3)C2)C(C)C)CC1.O=S(=O)(O)O [Example 11A] | <0.1% | 0.11% | 0.8% |  |  | 
COc1ccncc1CN1CCC(N(CCCCCCCN2CC[C@@H](C(C(N)=O)(c3ccccc3)c3ccccc3)C2)C(C)C)CC1.O=C(O)C(O)C(O)C(=O)O [Example 11B] | 0.26% | 0.35% | 0.8% |  |  | formed a non-flowing granular cake
COc1ccncc1CN1CCC(N(CCCCCCCN2CC[C@@H](C(C(N)=O)(c3ccccc3)c3ccccc3)C2)C(C)C)CC1.O=C(O)c1ccccc1O.O=C(O)c1ccccc1O [Example 11D] | 0.17% | 0.19% | 0.7% |  |  | 
COc1ccncc1CN1CCC(N(CCCCCCCN2CC[C@@H](C(C(N)=O)(c3ccccc3)c3ccccc3)C2)C(C)C)CC1.O=C(O)c1cc(O)ccc1O.O=C(O)c1cc(O)ccc1O [Example 11F] | 0.21% | 0.23% | 0.4% |  |  | 
COc1ccncc1CN1CCC(N(CCCCCCCN2CC[C@@H](C(C(N)=O)(c3ccccc3)c3ccccc3)C2)C(C)C)CC1.O=C(O)c1cc(=O)[nH]c(=O)[nH]1.O=C(O)c1cc(=O)[nH]c(=O)[nH]1 [Example 11C] | 0.45% | 0.49% | 1.1% |  |  | 
COc1ccncc1CN1CCC(N(CCCCCCCN2CC[C@@H](C(C(N)=O)(c3ccccc3)c3ccccc3)C2)C(C)C)CC1.O=C(O)c1ccccc1O.O=C(O)c1ccccc1O.O=C(O)c1ccccc1O [Example 11E] | 1.22% | 1.06% | 2.7% |  |  | 
